Measured values taken from patent publication US6534496B1, “Thermogenic composition and benzazepine thermogenics” (Takeda Chemical Industries, Inc., priority 1997, dated 2003).
Structures can show the parent of a compound that is named as a salt.

Row | Compound | melting point
1 | O=C(CCC1CCN(Cc2cc(C(F)(F)F)cc(C(F)(F)F)c2)CC1)c1ccc2c(c1)CN(Cc1ccccc1)CCO2 (as salt: hydrochloride) | 234 to 236 °C
2 | CNC(=O)Nc1ccccc1CN1CCC(CCCC(=O)c2ccc3c(c2)CCN(Cc2ccccc2C)CC3)CC1 (as salt: hydrochloride) | 176 to 189 °C (dec.)
3 | Cc1ccccc1CN1CCC(CCC(=O)c2ccc3c(c2)CN(Cc2ccccc2)CCO3)CC1 (as salt: hydrochloride) | 232 to 234 °C
4 | Cc1cccc(CN2CCC(CCC(=O)c3ccc4c(c3)CN(Cc3ccccc3)CCO4)CC2)c1 (as salt: hydrochloride) [Example 4, 3-[1-[(3-Methylphenyl)methyl]-4-piperidinyl]-1-[4-(phenylmethyl)-2,3,4,5-tetrahydro-1,4-benzoxazepin-7-yl]-1-propanone Dihydrochloride] | 212 to 214 °C
5 | O=C(CCC1CCN(Cc2ccc(F)cc2)CC1)c1ccc2c(c1)CN(Cc1ccccc1)CCO2 (as salt: hydrochloride) [Example 8, 3-[1-[(4-Fluorophenyl)methyl]-4-piperidinyl]-1-[4-(phenylmethyl)-2,3,4 5-tetrahydro-1,4-benzoxazepin-7-yl]-1-propanone Dihydrochloride] | 212 to 214 °C
6 | O=C(CCC1CCN(Cc2ccccc2C(F)(F)F)CC1)c1ccc2c(c1)CN(Cc1ccccc1)CCO2 (as salt: hydrochloride) [Example 12, 1-[4-(Phenylmethyl)-2,3,4,5-tetrahydro-1,4-benzoxazepin-7-yl]-3-[1-[(2-trifluoromethylphenyl)methyl]-4-piperidinyl]-1-propanone Dihydrochloride] | 223 to 225 °C
7 | O=C(CCCC1CCNCC1)c1ccc2c(c1)CCN(Cc1ccccc1)CC2 (as salt: hydrochloride) [Example 26, 1-[3-(Phenylmethyl)-2,3,4,5-tetrahydro-1H-3-benzazepin-7-yl]-4-(4-piperidinyl)-1-butanone Dihydrochloride] | 201 to 203 °C
8 | O=C(CCC1CCN(Cc2ccc(Cl)cc2)CC1)c1ccc2c(c1)CCN(Cc1ccc(F)cc1)CC2 (as salt: hydrochloride) [Example 41, 3-[1-[(4-Chlorophenyl)methyl]-4-piperidinyl]-1-[3-[(4-fluorophenyl)methyl]-2,3,4,5-tetrahydro-1H-3-benzazepin-7-yl]-1-propanone Dihydrochloride] | 219 to 222 °C (dec.)
9 | CN1CCC(CCC(=O)c2ccc3c(c2)CCN(Cc2ccc(F)cc2)CC3)CC1 (as salt: hydrochloride) [Example 42, 1-[3-[(4-Fluorophenyl)methyl]-2,3,4,5-tetrahydro-1H-3-benzazepin-7-yl]-3-(1-methyl-4-piperidinyl)-1-propanone Dihydrochloride] | 213 to 216 °C (dec.)
10 | CCOC(=O)C(C)(C)c1ccc(CN2CCC(CCC(=O)c3ccc4c(c3)CCN(Cc3ccc(F)cc3)CC4)CC2)cc1 (as salt: hydrochloride) [Example 43, Ethyl 2-methyl-2-[4-[[4-[3-[3-[(4-fluorophenyl)methyl]-2,3,4,5-tetrahydro-1H-3-benzazepin-7-yl]-3-oxopropyl]-1-piperidinyl]methyl]phenyl]propionate Dihydrochloride] | 228 to 231 °C (dec.)
11 | CCOC(=O)COc1ccc(CN2CCC(CCC(=O)c3ccc4c(c3)CCN(Cc3ccc(F)cc3)CC4)CC2)cc1 (as salt: hydrochloride) [Example 45, Ethyl 2-[4-[[4-[3-[3-[(4-fluorophenyl)methyl]-2,3,4,5-tetrahydro-1H-3-benzazepin-7-yl]-3-oxopropyl]-1-piperidinyl]methyl]phenoxy]ethanoate Dihydrochloride] | 206 to 208 °C
12 | O=C(CCC1CCN(Cc2ccc(-c3ccccc3)cc2)CC1)c1ccc2c(c1)CCN(Cc1ccc(F)cc1)CC2 (as salt: hydrochloride) [Example 49, 1-[3-[(4-Fluorophenyl)methyl]-2,3,4,5-tetrahydro-1H-3-benzazepin-7-yl]-3-[1-[(4-phenylphenyl)methyl]-4-piperidinyl]-1-propanone Dihydrochloride] | 225 to 228 °C (dec.)
13 | O=C(CCC1CCNCC1)c1ccc2c(c1)CN(Cc1ccc(F)cc1)CCO2 (as salt: hydrochloride) [Example 78, 1-[4-[(4-Fluorophenyl)methyl]-2,3,4,5-tetrahydro-1,4-benzoxazepin-7-yl]-3-(4-piperidinyl)-1-propanone Dihydrochloride] | 173 to 174 °C
14 | Cc1cccc(CN2CCC(CCC(=O)c3ccc4c(c3)CN(Cc3ccc(F)cc3)CCO4)CC2)c1 (as salt: hydrochloride) [Example 79, 1-[4-[(4-Fluorophenyl)methyl]-2,3,4,5-tetrahydro-1,4-benzoxazepin-7-yl]-3-[1-[(3-methylphenyl)methyl]-4-piperidinyl]-1-propanone Dihydrochloride] | 223 to 225 °C
15 | O=C(CCC1CCN(Cc2cccc(Cl)c2)CC1)c1ccc2c(c1)CN(Cc1ccc(F)cc1)CCO2 (as salt: hydrochloride) [Example 80, 3-[1-[(3-Chlorophenyl)methyl]-4-piperidiny]-1-[4-[(4-fluorophenyl)methyl]-2,3,4,5-tetrahydro-1,4-benzoxazepin-7-yl]-1-propanone Dihydrochloride] | 224 to 225 °C

More lines, now with the values ahead:

Row | melting point | Compound
16 | 228 to 231 °C | O=C(CCC1CCN(Cc2cccc(F)c2)CC1)c1ccc2c(c1)CN(Cc1ccc(F)cc1)CCO2 (as salt: hydrochloride) [Example 81, 3-[1-[(3-Fluorophenyl)methyl]-4-piperidiny]-1-[4-[(4-fluorophenyl)methyl]-2,3,4,5-tetrahydro-1,4-benzoxazepin-7-yl]-1-propanone Dihydrochloride]
17 | 216 to 219 °C | Cc1ccccc1CN1CCC(CCC(=O)c2ccc3c(c2)CN(Cc2ccc(F)cc2)CCO3)CC1 (as salt: hydrochloride) [Example 83, 1-[4-[(4-Fluorophenyl)methyl]-2,3,4,5-tetrahydro-1,4-benzoxazepin-7-yl]-3-[1-[(2-methylphenyl)methy]-4-piperidinyl]-1-propanone Dihydrochloride]
18 | 234 to 237 °C | O=C(CCC1CCN(Cc2ccc(C(F)(F)F)cc2)CC1)c1ccc2c(c1)CN(Cc1ccc(F)cc1)CCO2 (as salt: hydrochloride) [Example 88, 1-[4-[(4-Fluorophenyl)methyl]-2,3,4,5-tetrahydro-1,4-benzoxazepin-7-yl]-3-[1-[[4-(trifluoromethyl)phenyl]methyl]-4-piperidinyl]-1-propanone Dihydrochloride]
19 | 241 to 244 °C (dec.) | COc1ccc(CN2CCc3ccc(C(=O)CCC4CCN(Cc5ccc(C(C)(C)C)cc5)CC4)cc3CC2)cc1 (as salt: hydrochloride) [Example 93, 1-[3-[(4-methbyphenyl)methyl]-2,3,4,5-tetrahydro-1H-3-benzazepin-7-yl]3-[1-[[4-(tert-butyl)phenyl]methyl]-4-piperidinyl]-1-propanone Dihydrochloride]
20 | 220 to 223 °C (dec.) | COc1ccc(CN2CCc3ccc(C(=O)CCC4CCN(Cc5ccc(Cl)c(Cl)c5)CC4)cc3CC2)cc1 (as salt: hydrochloride) [Example 96, 3-[1-[(3,4-Dichlorophenyl)methyl]-4-piperidinyl]-1-[3-[(4-methoxyphenyl)methyl]-2,3,34,5-tetrahydro-1H-3-benzazepin-7-yl]-1-propanone Dihydrochloride]
21 | 187 to 189 °C | O=C(CCC1CCN(Cc2cccc(-c3ccccc3)c2)CC1)c1ccc2c(c1)CN(Cc1ccc(F)cc1)CCO2 (as salt: hydrochloride) [Example 99, 1-[4-[(4-Fluorophenyl)methyl]-2,3,4,5-tetrahydro-1,4-benzoxazepin-7-yl]-3-[1-[(3-phenylphenyl)methyl]-4-piperidinyl]-1-propanone Ddihydrochloride]
22 | 200 to 203 °C | CCOC(=O)COc1cccc(CN2CCC(CCC(=O)c3ccc4c(c3)CN(Cc3ccc(F)cc3)CCO4)CC2)c1 (as salt: hydrochloride) [Example 103, Ethyl 2-[3-[[4-[3-[4-[(4-fluorophenyl)methyl]-2,3,4,5-tetrahydro-1,4-benzoxazepin-7-yl]-3-oxopropyl]-1-piperidinyl]methyl]phenoxy]ethanoate Dihydrochloride]
23 | 240 to 243 °C | CC(C)(C)c1ccc(CN2CCC(CCC(=O)c3ccc4c(c3)CN(Cc3ccc(F)cc3)CCO4)CC2)cc1 (as salt: hydrochloride) [Example 108, 1-[4-[(4-Fluorophenyl)methyl]-2,3,4,5-tetrahydro-4-benzoxazepin-7-yl]-3-[1-[[4-(tert-butyl)phenyl]methyl]-4-piperidinyl]-1-propanone Dihydrochloride]
24 | 183 to 186 °C | Cc1ccccc1CN1CCc2ccc(C(=O)CCCC3CCN(Cc4ccccc4C)CC3)cc2CC1 (as salt: hydrochloride) [Example 127, 4-[1-[(2-Methylphenyl)methyl]-4-piperidinyl]-1-[3-[(2-methylphenyl)methyl]-2,3,4,5-tetrahydro-1H-3-benzazepin-7-yl]-1-butanone Dihydrochloride]
25 | 191 to 194 °C | Cc1ccccc1CN1CCc2ccc(C(=O)CCCC3CCN(Cc4ccccc4)CC3)cc2CC1 (as salt: hydrochloride) [Example 129, 1-[3-[(2-Methylphenyl)methyl]-2,3,4,5-tetrahydro-1H-3-benzazepin-7-yl]-4-[1-(phenylmethyl)-4-piperidinyl]-1-butanone Dihydrochloride]
26 | 180 to 183 °C | Cc1ccccc1CN1CCc2ccc(C(=O)CCCC3CCN(Cc4cccc(Cl)c4)CC3)cc2CC1 (as salt: hydrochloride) [Example 130]
27 | 194 to 200 °C | COC(=O)c1cccc(CN2CCC(CCCC(=O)c3ccc4c(c3)CCN(Cc3ccccc3)CC4)CC2)c1 (as salt: hydrochloride) [Example 152, Methyl 3-[[4-[4-[3-(phenylmethyl)-2,3,4,5-tetrahydro,-1H-3-benzazepin-7-yl]-4-oxobutyl]-1-piperidinyl]methyl]benzoate Dihydrochloride]
